According to ChEMBL document CHEMBL1140050, “Designed glycopeptides with different beta-turn types as synthetic probes for the detection of autoantibodies as biomarkers of multiple sclerosis” (J Med Chem, 2008):
Residues, ends and D or L forms follow the SMILES beside them. *: point of attachment. NH(β-D-Glc) = OC[C@H]1O[C@@H](N*)[C@H](O)[C@@H](O)[C@@H]1O

assay: Binding affinity to anti-CSF114 (Glc) antibody in serum from multiple sclerosis patient by ELISA

IC50 [nM]	Structure (SMILES)
14.9	CC(=O)N[C@@H](CCC(=O)O)C(=O)N[C@@H](CCCNC(=N)N)C(=O)N1CCC[C@H]1C(=O)N[C@@H](CC(=O)N[C@@H]1O[C@H](CO)[C@@H](O)[C@H](O)[C@H]1O)C(=O)N[C@@H](Cc1cnc[nH]1)C(=O)N[C@H](C(=O)N[C@H](C(N)=O)C(C)C)[C@@H](C)O (Ac-ERPD(NH(β-D-Glc))HTV-NH2)
11.8	CSCC[C@H](NC(=O)[C@H](Cc1c[nH]c2ccccc12)NC(=O)CNC(=O)[C@H](Cc1ccc(O)cc1)NC(=O)[C@@H]1CCCN1C(=O)[C@H](C)NC(=O)[C@H](CC(C)C)NC(=O)[C@H](Cc1ccccc1)NC(=O)[C@@H](NC(=O)[C@@H](NC(=O)[C@H](Cc1cnc[nH]1)NC(=O)[C@H](CC(=O)N[C@@H]1O[C@H](CO)[C@@H](O)[C@H](O)[C@H]1O)NC(=O)[C@@H]1CCCN1C(=O)[C@H](CCCNC(=N)N)NC(=O)[C@H](CCC(=O)O)NC(=O)[C@@H](NC(=O)[C@H](CCCNC(=N)N)NC(=O)[C@@H]1CCCN1C(=O)[C@@H](N)[C@@H](C)O)C(C)C)[C@@H](C)O)C(C)C)C(=O)N[C@H](C(=O)N[C@@H](CCCCN)C(=O)O)C(C)C (H-TPRVERPD(NH(β-D-Glc))HTVFLAPYGWMVK-OH)
30.3	CSCC[C@H](NC(=O)[C@H](Cc1c[nH]c2ccccc12)NC(=O)CNC(=O)[C@H](Cc1ccc(O)cc1)NC(=O)[C@@H]1CCCN1C(=O)[C@H](C)NC(=O)[C@H](CC(C)C)NC(=O)[C@H](Cc1ccccc1)NC(=O)[C@@H](NC(=O)[C@@H](NC(=O)[C@H](Cc1cnc[nH]1)NC(=O)[C@H](CC(=O)N[C@@H]1O[C@H](CO)[C@@H](O)[C@H](O)[C@H]1O)NC(=O)CNC(=O)[C@H](CCCNC(=N)N)NC(=O)[C@H](CCC(=O)O)NC(=O)[C@@H](NC(=O)[C@H](CCCNC(=N)N)NC(=O)[C@@H]1CCCN1C(=O)[C@@H](N)[C@@H](C)O)C(C)C)[C@@H](C)O)C(C)C)C(=O)N[C@H](C(=O)N[C@@H](CCCCN)C(=O)O)C(C)C (H-TPRVERGD(NH(β-D-Glc))HTVFLAPYGWMVK-OH)

Structure (SMILES)	IC50 [nM]
CSCC[C@H](NC(=O)[C@H](Cc1c[nH]c2ccccc12)NC(=O)CNC(=O)[C@H](Cc1ccc(O)cc1)NC(=O)[C@@H]1CCCN1C(=O)[C@H](C)NC(=O)[C@H](CC(C)C)NC(=O)[C@H](Cc1ccccc1)NC(=O)[C@@H](NC(=O)[C@H](CO)NC(=O)[C@H](Cc1cnc[nH]1)NC(=O)CNC(=O)[C@H](CC(=O)N[C@@H]1O[C@H](CO)[C@@H](O)[C@H](O)[C@H]1O)NC(=O)[C@H](CCCNC(=N)N)NC(=O)[C@H](CCC(=O)O)NC(=O)[C@@H](NC(=O)[C@H](CCCNC(=N)N)NC(=O)[C@@H]1CCCN1C(=O)[C@@H](N)[C@@H](C)O)C(C)C)C(C)C)C(=O)N[C@H](C(=O)N[C@@H](CCCCN)C(=O)O)C(C)C	137
